# “And” between values parts separate entries of the source, which are not always exact repeats. Equal entries are not always repeated.
# Test system: DU-145 multicell spheroids with HUVEC/MSC, viability
# Assay: Anticancer human tumor DU-145 cell line growth inhibition [IpAb];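 further: spheroids exposed to agents for seven days before measurement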;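 on viability, T/C: percent of DMSO vehicle control viability so 100% = untreated level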
# Settings: for viability, T/C: stronger effect = lower value
# Source text: Combinatorial screen of targeted agents with ipatasertib and abemaciclib in multi-cell type tumor spheroids
# A high-throughput screen of multi-cell type tumor spheroids was designed to identify active combinations of targeted small molecules and ipatasertib or abemaciclib. Complex spheroids include a stromal component modeled by human endothelial cells (HUVEC) and fibroblasts modeled by human mesenchymal stem cells (MSCs). The concentration ranges selected for each drug and investigational agent were based upon clinically achievable concentrations if the clinical Cmax of the agent was known.
# Compounds. The drugs and investigational agents: ipatasertib (NSC767898), abemaciclib(NSC768073), selumetinib (NSC741078), trametinib (758246), adavosertib (NSC754352), everolimus (NSC733504), sapanisertib (NSC764658), vemurafenib (NSC761431), venetoclax (NSC766270), copanlisib (NSC809693), apelisib (NSC765974), palbociblib (NSC758247), vemurafenib (NSC761431), dabrafenib (NSC764134), ravoxertinib (NSC781343), BMS-387032 (NSC767048), sotorasib (NSC818433), talazoparib (NSC767125) and afursertib (NSC778305), were obtained from the National Cancer Institute (NCI) Developmental Therapeutics Program Chemical Repository. The FDA-approved anticancer drug set is available from the NCI Developmental Therapeutics Program. […] The stock solutions were prepared in dimethyl sulfoxide (DMSO, Sigma-Aldrich, St. Louis, MO, cat. D2650) at 800-fold the tested concentration and stored at -70 degrees C prior to their use. All drugs and investigational agents were tested over a range starting from a high concentration at or near the clinical Cmax and decreasing in half-log increments. If the clinical Cmax for an agent had not been determined, the highest concentration tested was 10 microM.
# NCI60 Cell Culture. NCI60 cell lines were obtained from the NCI Developmental Therapeutics Program Tumor Repository. For each lot of cells, the Repository performed Applied Biosystems AmpFLSTR Identifiler testing with PCR amplification to confirm consistency with the published Identifier STR profile for each cell line. Cells were kept in continuous culture for no more than 20 passages. The optimal seeding densities for each of the cell lines at each time point assessed were determined prior to performing the concentration response studies. Briefly, the NCI60 human tumor lines were grown as monolayers in RPMI 1640 medium supplemented with 10% FBS and 2 mmol/L L-glutamine.
# An additional 9 lines were from the NCI60 cell line panel including MDA-MB-231 breast carcinoma, MDA-MB-468 breast carcinoma, MCF7 breast carcinoma, Hs578T breast carcinoma, MALME-3M melanoma, SK-MEL-2 melanoma, SK-OV-3 ovarian carcinoma, DU-145 prostate carcinoma, PC-3 prostate carcinoma, all cell lines along with major genetic alterations are listed on Table 2. Pooled donor human umbilical vein endothelial cells (HUVEC, Lonza, cat. CC-2519) and human mesenchymal stem cells (hMSC, Lonza, cat. PT-2501) were purchased from Lonza (Walkersville, MD).
# PDMR cell lines were grown in complete medium (DC medium): Dulbecco's modified Eagle's medium (DMEM)/F12 supplemented with 5% fetal bovine serum (FBS), 2 mM L-glutamine, 100 U/mL penicillin and 100 µg/ml streptomycin, 0.4 µg/ml hydrocortisone, 10 ng/ml epidermal growth factor (EGF) recombinant human protein, 24 µg/mL adenine, and 0.1 mg/mL primocin. During culture from frozen stock vials, PDMR cells were cultured in the same medium containing 10 µM Y-27632 (see Table 3). The PDCs were cultured in complete DMEM/F12 media without 10 microM Y-27632 dihydrochloride for at least two passages prior to the screen. The pooled donor HUVEC and hMSC were cultured in endothelial cell growth medium 2 (PromoCell, Heidelberg, Germany, cat. C-22011) and mesenchymal stem cell growth medium 2 (PromoCell, cat. C-28009), respectively. For all experiments, HUVEC and hMSC were used at passages </=5.
# […]
# [1] = curve of first compound, second compound 0.1 µM
# [2] = curve of first compound, second compound 0.316 µM
# [3] = curve of first compound, second compound 1 µM
# [4] = second compound 0.1 µM, first compound 0.0316 µM
# [5] = second compound 0.1 µM, first compound 0.1 µM
# [6] = second compound 0.316 µM, first compound 0.0316 µM
# [7] = second compound 0.316 µM, first compound 0.1 µM
# [8] = second compound 1 µM, first compound 0.0316 µM
# [9] = second compound 1 µM, first compound 0.1 µM
# [10] = curve of first compound, second compound 0.01 µM
# [11] = curve of first compound, second compound 0.0316 µM
# [12] = second compound 0.01 µM, first compound 0.0316 µM
# [13] = second compound 0.01 µM, first compound 0.1 µM
# [14] = second compound 0.01 µM, first compound 0.316 µM
# [15] = second compound 0.01 µM, first compound 1 µM
# [16] = second compound 0.01 µM, first compound 3.16 µM
# [17] = second compound 0.01 µM, first compound 10 µM
# [18] = second compound 0.0316 µM, first compound 0.0316 µM
# [19] = second compound 0.0316 µM, first compound 0.1 µM
# [20] = second compound 0.0316 µM, first compound 0.316 µM
# [21] = second compound 0.0316 µM, first compound 1 µM
# [22] = second compound 0.0316 µM, first compound 3.16 µM
# [23] = second compound 0.0316 µM, first compound 10 µM
# [24] = second compound 0.1 µM, first compound 0.316 µM
# [25] = second compound 0.1 µM, first compound 1 µM
# [26] = second compound 0.1 µM, first compound 3.16 µM
# [27] = second compound 0.1 µM, first compound 10 µM
# [28] = second compound 0.316 µM, first compound 0.316 µM
# [29] = second compound 0.316 µM, first compound 1 µM
# [30] = second compound 0.316 µM, first compound 3.16 µM
# [31] = second compound 0.316 µM, first compound 10 µM
# [32] = second compound 1 µM, first compound 0.316 µM
# [33] = second compound 1 µM, first compound 1 µM
# [34] = second compound 1 µM, first compound 3.16 µM
# [35] = second compound 1 µM, first compound 10 µM
compound,measurement,setting,value
Cn1ncnc1[C@H]1c2n[nH]c(=O)c3cc(F)cc(c23)N[C@@H]1c1ccc(F)cc1 + CC(C)NCC(C(=O)N1CCN(c2ncnc3c2C(C)CC3O)CC1)c1ccc(Cl)cc1,IC50,[1],> 100 nM
same,IC50,[2],46.1 nM
same,IC50,[3],< 0.316 nM
same,IC50,"curve of first compound, second compound 3.16 µM",< 0.316 nM
same,IC50,"curve of first compound, second compound 10 µM",< 0.316 nM
same,"viability, T/C","second compound 0.1 µM, first compound 0.000316 µM",85.8%
same,"viability, T/C","second compound 0.1 µM, first compound 0.001 µM",81.1%
same,"viability, T/C","second compound 0.1 µM, first compound 0.00316 µM",83.2%
same,"viability, T/C","second compound 0.1 µM, first compound 0.01 µM",82.1%
same,"viability, T/C",[4],77.9%
same,"viability, T/C",[5],73.4%
same,"viability, T/C","second compound 0.316 µM, first compound 0.000316 µM",56%
same,"viability, T/C","second compound 0.316 µM, first compound 0.001 µM",57.8%
same,"viability, T/C","second compound 0.316 µM, first compound 0.00316 µM",51.9%
same,"viability, T/C","second compound 0.316 µM, first compound 0.01 µM",53.8%
same,"viability, T/C",[6],51.8%
same,"viability, T/C",[7],47.1%
same,"viability, T/C","second compound 1 µM, first compound 0.000316 µM",34.4%
same,"viability, T/C","second compound 1 µM, first compound 0.001 µM",36.3%
same,"viability, T/C","second compound 1 µM, first compound 0.00316 µM",33.5%
same,"viability, T/C","second compound 1 µM, first compound 0.01 µM",33%
same,"viability, T/C",[8],34.3%
same,"viability, T/C",[9],33.6%
same,"viability, T/C","second compound 3.16 µM, first compound 0.000316 µM",24%
same,"viability, T/C","second compound 3.16 µM, first compound 0.001 µM",24.8%
same,"viability, T/C","second compound 3.16 µM, first compound 0.00316 µM",23.9%
same,"viability, T/C","second compound 3.16 µM, first compound 0.01 µM",21.9%
same,"viability, T/C","second compound 3.16 µM, first compound 0.0316 µM",24.5%
same,"viability, T/C","second compound 3.16 µM, first compound 0.1 µM",23.3%
same,"viability, T/C","second compound 10 µM, first compound 0.000316 µM",17.7%
same,"viability, T/C","second compound 10 µM, first compound 0.001 µM",20.1%
same,"viability, T/C","second compound 10 µM, first compound 0.00316 µM",19.6%
same,"viability, T/C","second compound 10 µM, first compound 0.01 µM",19.1%
same,"viability, T/C","second compound 10 µM, first compound 0.0316 µM",18.1%
same,"viability, T/C","second compound 10 µM, first compound 0.1 µM",19.5%
CC(C)n1nc(-c2ccc3oc(N)nc3c2)c2c(N)ncnc21,"viability, T/C",compound 0.000316 µM,78.7% and 94.3%
same,"viability, T/C",compound 0.001 µM,57.3% and 66.2%
same,"viability, T/C",compound 0.00316 µM,41.3% and 40.2%
same,"viability, T/C",compound 0.01 µM,22.9% and 21.7%
same,"viability, T/C",compound 0.0316 µM,14.4% and 12%
same,"viability, T/C",compound 0.1 µM,10.8% and 10.1%
same,IC50,curve of compound,1.66 nM and 2.03 nM
C=CC(=O)N1CCN(c2nc(=O)n(-c3c(C)ccnc3C(C)C)c3nc(-c4c(O)cccc4F)c(F)cc23)C(C)C1 (stereo unspecified) + CCN1CCN(Cc2ccc(Nc3ncc(F)c(-c4cc(F)c5nc(C)n(C(C)C)c5c4)n3)nc2)CC1,IC50,[10],7920 nM
same,IC50,[11],7520 nM
same,IC50,[1],8370 nM
same,IC50,[2],9550 nM
same,IC50,[3],6070 nM
same,"viability, T/C",[12],94.6%
same,"viability, T/C",[13],104%
same,"viability, T/C",[14],111%
same,"viability, T/C",[15],104%
same,"viability, T/C",[16],86.1%
same,"viability, T/C",[17],40.6%
same,"viability, T/C",[18],91.2%
same,"viability, T/C",[19],95%
same,"viability, T/C",[20],98.7%
same,"viability, T/C",[21],96.5%
same,"viability, T/C",[22],81.5%
same,"viability, T/C",[23],39.4%
same,"viability, T/C",[4],82.8%
same,"viability, T/C",[5],81%
same,"viability, T/C",[24],91.5%
same,"viability, T/C",[25],93.3%
same,"viability, T/C",[26],78.4%
same,"viability, T/C",[27],44.8%
same,"viability, T/C",[6],78.8%
same,"viability, T/C",[7],78.3%
same,"viability, T/C",[28],82.4%
same,"viability, T/C",[29],85.8%
same,"viability, T/C",[30],77.3%
same,"viability, T/C",[31],49%
same,"viability, T/C",[8],66.1%
same,"viability, T/C",[9],64.4%
same,"viability, T/C",[32],65.9%
same,"viability, T/C",[33],70.5%
same,"viability, T/C",[34],67.5%
same,"viability, T/C",[35],37.3%
Cn1ncc(Cl)c1-c1cc(C(=O)NC(CN)Cc2cccc(F)c2)sc1Cl (stereo unspecified) + CCN1CCN(Cc2ccc(Nc3ncc(F)c(-c4cc(F)c5nc(C)n(C(C)C)c5c4)n3)nc2)CC1,IC50,[10],135 nM
same,IC50,[11],96.7 nM
same,IC50,[1],80.3 nM
same,IC50,[2],79.6 nM
same,IC50,[3],190 nM
same,"viability, T/C",[12],84.7%
same,"viability, T/C",[13],56.3%
same,"viability, T/C",[14],30.6%
same,"viability, T/C",[15],22.5%
same,"viability, T/C",[16],13.7%
same,"viability, T/C",[17],1.16%
same,"viability, T/C",[18],74.1%
same,"viability, T/C",[19],48.9%
same,"viability, T/C",[20],29.6%
same,"viability, T/C",[21],19.6%
same,"viability, T/C",[22],14%
same,"viability, T/C",[23],0.22%
same,"viability, T/C",[4],64.4%
same,"viability, T/C",[5],47.8%
same,"viability, T/C",[24],29.4%
same,"viability, T/C",[25],19%
same,"viability, T/C",[26],13.4%
same,"viability, T/C",[27],0.82%
same,"viability, T/C",[6],60%
same,"viability, T/C",[7],48.5%
same,"viability, T/C",[28],32.8%
same,"viability, T/C",[29],23.4%
same,"viability, T/C",[30],16.4%
same,"viability, T/C",[31],0.85%
same,"viability, T/C",[8],60.3%
same,"viability, T/C",[9],52%
same,"viability, T/C",[32],50.2%
same,"viability, T/C",[33],30.9%
same,"viability, T/C",[34],25.8%
same,"viability, T/C",[35],0.53%
Cn1ncnc1[C@H]1c2n[nH]c(=O)c3cc(F)cc(c23)N[C@@H]1c1ccc(F)cc1,"viability, T/C",compound 0.000316 µM,109% and 101%
same,"viability, T/C",compound 0.001 µM,105% and 99.7%
same,"viability, T/C",compound 0.00316 µM,97.9% and 92.2%
same,"viability, T/C",compound 0.01 µM,99.3% and 96.5%
same,"viability, T/C",compound 0.0316 µM,95.1% and 97.6%
same,"viability, T/C",compound 0.1 µM,92.9% and 80.5%
same,IC50,curve of compound,> 100 nM
CC(=O)c1c(C)c2cnc(Nc3ccc(N4CCNCC4)cn3)nc2n(C2CCCC2)c1=O,"viability, T/C",compound 0.000949 µM,104% and 89.4%
same,"viability, T/C",compound 0.003 µM,102% and 98.4%
same,"viability, T/C",compound 0.00949 µM,99.7% and 96.5%
same,"viability, T/C",compound 0.03 µM,103% and 93.6%
same,"viability, T/C",compound 0.0949 µM,99.4% and 97.1%
same,"viability, T/C",compound 0.3 µM,90.7% and 80.9%
same,IC50,curve of compound,> 300 nM
